The text below walks through data of patent publication US10577332B2, “Tetrazole derivatives” (Hoffmann-La Roche Inc., priority 2015, dated 2020).

The target of one series is T1, human EAAT3 (Homo sapiens, UniProt P43005).
T1 construct: expressed in transfected cells
T1 sequence (P43005 1-524): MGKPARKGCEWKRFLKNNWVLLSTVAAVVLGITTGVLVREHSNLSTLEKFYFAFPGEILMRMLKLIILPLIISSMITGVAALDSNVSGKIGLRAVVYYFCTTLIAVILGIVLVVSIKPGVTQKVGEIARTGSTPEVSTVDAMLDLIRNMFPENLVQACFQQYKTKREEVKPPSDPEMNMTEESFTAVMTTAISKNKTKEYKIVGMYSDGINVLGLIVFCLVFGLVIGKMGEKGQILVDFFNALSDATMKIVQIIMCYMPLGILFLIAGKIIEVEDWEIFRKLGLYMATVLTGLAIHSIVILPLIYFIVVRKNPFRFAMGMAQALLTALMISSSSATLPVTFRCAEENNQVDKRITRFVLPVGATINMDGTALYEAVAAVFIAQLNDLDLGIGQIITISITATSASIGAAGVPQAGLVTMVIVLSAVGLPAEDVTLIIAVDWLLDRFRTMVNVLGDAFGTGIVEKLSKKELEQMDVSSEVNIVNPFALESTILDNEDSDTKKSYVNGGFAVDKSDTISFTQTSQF
As to the kind of experiment: FLIPR Membrane Potential (FMP) assay. The series is classed as cell-based. Conditions: HEK-293 cells stably expressing human EAAT3; antagonist applied 15 min before L-glutamate at EC80; Kb by Cheng-Prusoff from IC50. The protocol: The FLIPR Membrane Potential (FMP) Assay
HEK-293 cells stably expressing human EAAT3 were seeded at 55 000 cells/well in growth medium (DMEM glutamate free (Invitrogen 11960-044), 1% Pen Strep (10 ml/l GIBCO BRL No 15140-023), 10% FCS non dialysed heat inactivated, 5 mg/l puromycin) in poly-D-lysine treated 96-well black microtiter plates with clear-bottom. After 24 h, the growth medium was removed and 100 μl/well of Krebs buffer (140 mM NaCl, 4.7 mM KCl, 2.5 mM CaCl2, 1.2 mM MgCl2, 11 mM HEPES, 10 mM D-glucose, pH=7.4) added. The cells were then loaded by adding 100 μl/well FMP assay dye (FLIPR Membrane Potential assay reagent, Molecular Devices). The 96-well plates were then incubated at 37° C. for 1 h. The depolarization of the cells will cause more dye to enter in the cells, where it will bind to intracellular proteins and lipids and cause an increase in the fluorescence signal. Antagonist potency at human EAAT3 was determined by using L-glutamate as agonist at a concentration which gives 80% of the maximum response. The antagonists were applied 15 min before the application of the agonist L-glutamate. The assays were performed at room temperature and measurements done by using a Fluorometric Imaging Plate Reader (FLIPR, Molecular Devices) and filter #2. Responses were measured as peak increase in fluorescence minus basal (i.e. fluorescence without addition of L-glutamate). Kb was determined using the Cheng-Prusoff equation Kb=IC50/[1+(A/EC50)], where IC50 is the concentration of the antagonist producing 50% inhibition, A is the concentration of the agonist against which the IC50 is being determined (at EC80) and EC50 is the concentration of the agonist producing 50% […].

`CC(C)(NC(=O)c1cc(-c2ccc(F)cc2)cc(-n2cnnn2)c1)C(F)(F)F` [Example 18, 3-(4-Fluorophenyl)-5-(tetrazol-1-yl)-N-(1,1,1-trifluoro-2-methylpropan-2-yl)-benzamide]: the melting point (commonly the temperature of the solid-liquid transition) is 175 °C. Further, the Kb (as a rule, the equilibrium dissociation constant of an antagonist, usually derived from a functional assay) at human EAAT3 came to 430 nM.

The compound `Cc1nnnn1-c1cc(C(=O)NC(C)(C)C2CC2)cc(-c2ccc(F)cc2)c1` [Example 85, N-(2-Cyclopropylpropan-2-yl)-3-(4-fluorophenyl)-5-(5-methyltetrazol-1-yl)-benzamide] registered a melting point of 78 °C. Also, on human EAAT3, the antagonist dissociation constant (Kb) was determined as 290 nM.

`CC(C)(CO)NC(=O)c1cc(-c2ccc(Cl)cc2)cc(-n2nnnc2C2CC2)c1` [Example 58, 3-(4-Chlorophenyl)-5-(5-cyclopropyltetrazol-1-yl)-N-(1-hydroxy-2-methylpropan-2-yl)-benzamide] showed a melting point of 110 °C. The compound also yielded a Kb on human EAAT3 of 360 nM.

`CC(C)(C)NC(=O)c1cc(-c2ccc(Cl)c(F)c2)cc(-n2nnnc2C(C)(C)C)c1` [Example 105, N-tert-Butyl-3-(5-tert-butyltetrazol-1-yl)-5-(4-chloro-3-fluorophenyl)-benzamide]: the melting point is 240.5 °C. Moreover, the antagonist dissociation constant (Kb) on human EAAT3 is 290 nM.

With `CC(C)(C)c1nnnn1-c1cc(C(=O)NC(C)(C)C(F)(F)F)cc(-c2ccc(F)cc2)c1` [Example 96, 3-(5-tert-Butyltetrazol-1-yl)-5-(4-fluorophenyl)-N-(1,1,1-trifluoro-2-methylpropan-2-yl)-benzamide], the melting point is 224.5 °C. Moreover, the Kb on human EAAT3 came to 260 nM.

Compound `CC(C)(CO)NC(=O)c1cc(-c2ccc(F)cc2)cc(-n2nnnc2C(C)(C)C)c1` [Example 94, 3-(5-tert-Butyltetrazol-1-yl)-5-(4-fluorophenyl)-N-(1-hydroxy-2-methylpropan-2-yl)-benzamide] returned a melting point of 212 °C. At human EAAT3, the Kb amounted to 250 nM.

As to `Cc1ccc(-c2cc(C(=O)NC(C)(C)CO)cc(-n3nnnc3C3CC3)c2)cc1` [Example 32, 3-(5-Cyclopropyltetrazol-1-yl)-N-(1-hydroxy-2-methylpropan-2-yl)-5-(4-methylphenyl)-benzamide], the Kb at human EAAT3 turned out to be 430 nM.

In the case of `CC(C)(NC(=O)c1cc(-c2ccc(Cl)cc2)cc(-n2cnnn2)c1)C(F)(F)F` [Example 41, 3-(4-Chlorophenyl)-5-(tetrazol-1-yl)-N-(1,1,1-trifluoro-2-methylpropan-2-yl)-benzamide], the melting point amounted to 187 °C. For the same compound, at human EAAT3, the Kb was 350 nM.

For `CC(C)(C)NC(=O)c1cc(-c2ccc(Cl)cc2)cc(-n2nnnc2C(C)(C)C)c1` [Example 91, N-tert-Butyl-3-(5-tert-butyltetrazol-1-yl)-5-(4-chlorophenyl)-benzamide], the melting point was determined as 230.5 °C. The Kb on human EAAT3 was 87 nM.

Take `CC(C)c1nnnn1-c1cc(C(=O)NC(C)(C)CO)cc(-c2ccc(F)cc2)c1` [Example 62, 3-(4-Fluorophenyl)-N-(1-hydroxy-2-methylpropan-2-yl)-5-(5-propan-2-yltetrazol-1-yl)-benzamide]: the melting point is 86.5 °C. The Kb on human EAAT3 turned out to be 550 nM.

Take `Cc1ccc(-c2cc(C(=O)NC(C)(C)C(F)(F)F)cc(-n3cnnn3)c2)cc1` [Example 13, 3-(4-Methylphenyl)-5-(tetrazol-1-yl)-N-(1,1,1-trifluoro-2-methylpropan-2-yl)-benzamide]: the melting point worked out at 190.5 °C. Besides, the antagonist dissociation constant (Kb) on human EAAT3 was 650 nM.

`CC(C)(C)c1nnnn1-c1cc(C(=O)NC(C)(C)C(F)(F)F)cc(-c2ccc(F)c(F)c2)c1` [Example 122, 3-(5-tert-Butyltetrazol-1-yl)-5-(3,4-difluorophenyl)-N-(1,1,1-trifluoro-2-methylpropan-2-yl)-benzamide] had a melting point of 221.5 °C. This compound gave a Kb on human EAAT3 of 360 nM.

`CC(C)(C)NC(=O)c1cc(-c2ccc(Cl)cc2)cc(-n2nnnc2C(F)(F)F)c1` [Example 75, N-tert-Butyl-3-(4-chlorophenyl)-5-[5-(trifluoromethyl)-tetrazol-1-yl]-benzamide] came in with a melting point of 186 °C. At human EAAT3, the Kb was found to be 110 nM.

For the compound `Cc1nnnn1-c1cc(C(=O)NC2(C)CCS(=O)(=O)C2)cc(-c2ccc(Cl)cc2)c1` (racemic) [Example 65, (RS)-3-(4-Chlorophenyl)-N-(3-methyl-1,1-dioxothiolan-3-yl)-5-(5-methyltetrazol-1-yl)-benzamide], the melting point came to 155.5 °C. On human EAAT3, the Kb was 360 nM.

`CCC(C)(C)NC(=O)c1cc(-c2ccc(C(F)(F)F)cc2)cc(-n2cnnn2)c1` [Example 2, N-(2-Methylbutan-2-yl)-3-(tetrazol-1-yl)-5-[4-(trifluoromethyl)phenyl]-benzamide]: the melting point turned out to be 168 °C. Moreover, the antagonist dissociation constant (Kb) at human EAAT3 was 220 nM.

`CC(C)(C)c1nnnn1-c1cc(C(=O)NC(C)(C)C2CC2)cc(-c2ccc(F)c(F)c2)c1` [Example 113, 3-(5-tert-Butyltetrazol-1-yl)-N-(2-cyclopropylpropan-2-yl)-5-(3,4-difluorophenyl)-benzamide] came in with a melting point of 90 °C. Also, at human EAAT3, the antagonist equilibrium constant (Kb) is 350 nM.

For the compound `Cc1ccc(-c2cc(C(=O)NC(C)(C)C3CC3)cc(-n3nnnc3C(C)(C)C)c2)cc1` [Example 109, 3-(5-tert-Butyltetrazol-1-yl)-N-(2-cyclopropylpropan-2-yl)-5-(4-methylphenyl)-benzamide], the melting point was found to be 91.5 °C. The compound further showed a Kb at human EAAT3 of 370 nM.

As for `CCC(C)(C)NC(=O)c1cc(-c2ccc(F)cc2)cc(-n2nnnc2C(C)C)c1` [Example 60, 3-(4-Fluorophenyl)-N-(2-methylbutan-2-yl)-5-(5-propan-2-yltetrazol-1-yl)-benzamide], the melting point was found to be 69 °C. Besides, at human EAAT3, the Kb came to 210 nM.

As for `Cc1nnnn1-c1cc(C(=O)NC(C)(C)C)cc(-c2ccc(F)cc2)c1` [Example 80, N-tert-Butyl-3-(4-fluorophenyl)-5-(5-methyltetrazol-1-yl)-benzamide], the melting point is 80 °C. Besides, on human EAAT3, the antagonist equilibrium constant (Kb) stood at 180 nM.

On to `CCC(C)(C)NC(=O)c1cc(-c2ccc(Cl)c(F)c2)cc(-n2cnnn2)c1` [Example 37, 3-(4-Chloro-3-fluorophenyl)-N-(2-methylbutan-2-yl)-5-(tetrazol-1-yl)-benzamide], for which the Kb on human EAAT3 amounted to 240 nM.

`Cc1nnnn1-c1cc(C(=O)NC(C)(C)C)cc(-c2ccc(Cl)cc2)c1` [Example 67, N-tert-Butyl-3-(4-chlorophenyl)-5-(5-methyltetrazol-1-yl)-benzamide] displayed a melting point of 98 °C. This compound also showed a Kb at human EAAT3 of 240 nM.

Regarding `CC(C)c1nnnn1-c1cc(C(=O)NC(C)(C)CO)cc(-c2ccc(C(F)(F)F)cc2)c1` [Example 51, N-(1-Hydroxy-2-methylpropan-2-yl)-3-(5-propan-2-yltetrazol-1-yl)-5-[4-(trifluoromethyl)-phenyl]-benzamide], the Kb on human EAAT3 came out at 370 nM.

In turn, “N-(2-methylbutan-2-yl)-3-(4-methylphenyl)-5-(5-methyltetrazol-1-yl)-benzamide [Example 22]” returned an antagonist equilibrium constant (Kb) at human EAAT3 of 150 nM.

The compound `CCC(C)(C)NC(=O)c1cc(-c2ccc(C(C)C)cc2)cc(-n2cnnn2)c1` [Example 8, N-(2-Methylbutan-2-yl)-3-(4-propan-2-ylphenyl)-5-(tetrazol-1-yl)-benzamide] had a Kb at human EAAT3 of 610 nM.

Take `CC(C)c1nnnn1-c1cc(C(=O)NC(C)(C)CO)cc(-c2ccc(Cl)cc2)c1` [Example 50, 3-(4-Chlorophenyl)-N-(1-hydroxy-2-methylpropan-2-yl)-5-(5-propan-2-yltetrazol-1-yl)-benzamide]: at human EAAT3, the Kb turned out to be 260 nM.

For `CCC(C)(C)NC(=O)c1cc(-c2ccc(C3CC3)cc2)cc(-n2cnnn2)c1` [Example 9, 3-(4-Cyclopropylphenyl)-N-(2-methylbutan-2-yl)-5-(tetrazol-1-yl)-benzamide], at human EAAT3, the Kb stood at 540 nM.
